Experimental data from patent publication US9486440B2, “Uses of indole-ketones or indolidones as neuro-protective drugs” (UNIVERSITY OF MACAU, priority 2011, dated 2016).
Entries after “also recorded” stand apart in the source; their conditions may differ.

Experiments:
[1] = test system: CGNs; settings: VEGF 10-300 ng/ml; cited from earlier work
[2] = target: iNOS (Homo sapiens, UniProt P35228); settings: cited from earlier work
[3] = test system: SH-SY5Y cells; assay: MPP+-induced neurotoxicity in SH-SY5Y cells, MTT assay; type: cell-based, human; settings: pre-treatment 2 hours, then 1 mM MPP+ for 24 hours
Protocol: The human neuroblastoma SH-SY5Y cells were obtained from ATCC. The cells were maintained in supplemented Dulbecco's modified eagle medium (DMEM), 10% fetal bovine serum, 100 U/ml penicillin, and 100 μg/ml streptomycin in a 37° C., 5% CO2 incubator. PC12 pheochromocytoma cells were also obtained from ATCC. The cells were cultured in medium that consisted of DMEM, 10% heat-inactivated horse serum, 5% fetal bovine serum, 100 U/ml penicillin, and 100 μg/ml streptomycin in a 37° C., 5% CO2 incubator. All experiments were carried out 48 hours after the cells were seeded. […] The assay was performed according to the specifications of the manufacturer (MTT kit I; Roche Applied Science). […] After the incubation, 100 μl of the solvating solution (0.01 N HCl in 10% SDS solution) was added to each well for 16-20 hours. Absorbance of the samples was measured at a wavelength of 570 nm with 655 nm as a reference wavelength. Unless otherwise indicated, the extent of MTT conversion in cells exposed to MPP^+ is expressed as a percentage of the control.

[4] = test system: CGNs; assay: MPP+-induced neurotoxicity in CGNs, MTT and LDH assays; type: cell-based, rat; settings: pre-treatment 2 hours, then 35 μM MPP+ for 24 hours
Protocol: (§1) All animal experiments were conducted according to the ethical guidelines of ICMS, Macau University and the Animal Care Facility, The Hong Kong Polytechnic University. Rat CGNs were prepared from 8-day-old Sprague-Dawley rats (The Animal Care Facility, The Hong Kong Polytechnic University) as described by Li et al., 2005. Briefly, neurons were seeded at a density of 2.7×10^5 cells/ml in basal modified Eagle's medium (Invitrogen) containing 10% fetal bovine serum, 25 mM KCl, 2 mM glutamine, and penicillin (100 units/ml)/streptomycin (100 μg/ml). Cytosine arabinoside (10 μM) was added to the culture medium 24 hour after plating to limit the growth of non-neuronal cells. With the use of this protocol, more than 95% of the cultured cells were granule neurons.
(§2) The percentage of surviving neurons in the presence of SU4312 and/or MPP^+ was estimated by determining the activity of mitochondrial dehydrogenases with 3(4,5-dimethylthiazol-2-yl)-2.5-diphenyltetrazolium bromide (MTT) assay (Li et al., 2007). The assay was performed according to the specifications of the manufacturer (MTT kit I; Roche Applied Science). Briefly, the neurons were cultured in 96-well plates, 10 μl of 5 mg/ml MTT labeling reagent was added to each well containing cells in 100 μl of medium, and the plates were incubated for 4 hours in a humidified incubator at 37° C. After the incubation, 100 μl of the solvating solution (0.01 N HCl in 10% SDS solution) was added to each well for 16-20 hours. Absorbance of the samples was measured at a wavelength of 570 nm with 655 nm as a reference wavelength. Unless otherwise indicated, the extent of MTT conversion in cells exposed to MPP^+ is expressed as a percentage of the control.
Cytotoxicity was determined by measuring the release of lactate dehydrogenase (LDH). Briefly, cells were precipitated by centrifugation at 500 g for 5 min at room temperature, 50 μl of the supernatants was transferred into new wells, and LDH was determined using the in vitro toxicology assay kit (Roche). The absorbance of the samples was measured at a wavelength of 490 nm with 655 nm as a reference wavelength.
as §1, with “Rat” for “All animal experiments were conducted according to the ethical guidelines of ICMS, Macau University and the Animal Care Facility, The Hong Kong Polytechnic University. Rat”, “hours” for “hour”
as §2, with “The” for “The percentage of surviving neurons in the presence of SU4312 and/or MPP^+ was estimated by determining the activity of mitochondrial dehydrogenases with 3(4,5-dimethylthiazol-2-yl)-2.5-diphenyltetrazolium bromide (MTT) assay (Li et al., 2007). The”, “incubated at 37° C.” for “incubated”, “incubator.” for “incubator at 37° C.”, “The absorbance” for “Absorbance”

[5] = test system: intracellular NO; assay: Intracellular NO in CGNs after MPP+ (DAF-FM diacetate); type: cell-based, rat; settings: pre-treatment 2 hours, 35 μM MPP+, 24 hours; SU4312 3-30 μM, 7-NI 3-10 μM
Protocol: (§3) Intracellular NO was monitored with 4-Amino-5-methylamino-2′,7′-difluorofluorescein (DAF-FM) diacetate, a pH-insensitive fluorescent dye that emits increased fluorescence after reaction with an active intermediate of NO formed during the spontaneous oxidation of NO to NO2 (Sheng et al., 2005). DAF-FM solution was added to the culture medium (final concentration: 5 μM). After 30 min in a CO2 incubator, cultures were washed twice with PBS and incubated for an additional 30 min to allow complete de-esterification of the intracellular diacetate for stronger fluorescence. The DAF-FM fluorescence in CGNs was quantified by a multi-detection microplate reader using excitation and emission wavelengths of 495 nm and 515 nm, respectively. The measured fluorescence values were expressed as a percentage of the fluorescence in the control cells.
as §3, with “(4-amino-5-methylamino-2′,7′-difluorofluorescein) DAF-FM” for “4-Amino-5-methylamino-2′,7′-difluorofluorescein (DAF-FM)”, “After incubation for” for “After”, “another” for “an additional”, “strong” for “stronger”

[6] = target: nNOS (Homo sapiens, UniProt P29475); settings: cited from earlier work

Molecule	MPP+-induced neurotoxicity in CGNs (earlier study) [1]	IC50 [2] [µM]	MPP+-induced neuronal death in SH-SY5Y cells (MTT) [3]	MPP+-induced cell death (cell viability, MTT and LDH assays) [4]	MPP+-induced elevation of intracellular NO level [5]	IC50 [6] [µM]
VEGF	protected neurons against MPP^+-induced neurotoxicity	–	–	–	–	–
O=[N+]([O-])c1cccc2cn[nH]c12 [7-nitroindazole]	–	20	at 5-10 μM prevented MPP^+-induced neuronal death	inhibited neuronal death; also recorded: protected against neuronal apoptosis	inhibited neuronal death and elevated level of intracellular NO induced by MPP^+	0.7
